{"source": "patent US20220323406A1", "about": "“METHODS AND COMPOSITIONS FOR DIFFERENTIATING STEM CELLS” (Massachusetts Institute of Technology, priority 2019, published 2022)", "key": {"[1]": {"test_system": "Paneth, goblet and cycling cells of small intestine", "assay": "KPT-330 treatment in vivo (Example 1), histology of proximal and distal small intestine", "design": "cycling cell number, distal small intestine: dose or concentration left out as unconfirmed"}, "[2]": {"test_system": "Paneth cells in ENR+CD organoids", "assay": "Flow cytometry of 3D-cultured intestinal organoids, Paneth cells (lysozyme-positive, CD24-positive)", "format": "cell-based, mouse", "text": "Flow cytometry analysis (3D culture). ISC-enriched organoids cultured in 3D Matrigel with ENRCV media were passaged to 24-well plate in 3D Matrigel with ENRCV. At day zero, media were replaced to ENRCD with or without indicated compounds, and media were replaced every other day. At day six, cells were washed with basal media, and then harvested from Matrigel by mechanical disruption in TrypLE Express (ThermoFisher, 12605010) to remove Matrigel and dissociate organoids to single cells. After vigorous pipetting and incubation at 37° C. for 20 min, dissociated organoids were strained through a 35 μm cell strainer into a tube (Falcon, 352235). […] Cell pellets were resuspended in FACS buffer (2% FBS in PBS), and then transferred to an ultra low-bind 96-well plate (Corning, 7007). Cells were stained with Zombie-violet viability dye (BioLegend, 423107) at 100× for viability staining and/or antibody staining solution. FITC-conjugated antibody for lysozyme (Dako, F0372) and APC-conjugated antibody for CD24 (BioLegend, 138505) were used at 100× dilution. Flow cytometry was performed using an LSR Fortessa (BD; Koch Institute Flow Cytometry Core at MIT). The data were analyzed using FlowJo v10 software.\nThe results of primary and secondary screening reflect a mixture of potential effects arising from small molecule treatment which may result in increases in total LYZ secretion. This includes contributions from enhanced Paneth cell differentiation, altered Paneth cell activity and changes in total cell number concurrent with differentiation. To better inform how the 6 compounds identified in the screen increased total secreted LYZ, and to isolate only those which enhance Paneth differentiation robustly, Applicants next utilized flow cytometry to measure the changes in Paneth cell representation within the treated organoids. […] Single live cells were selected by several gating strategies and Paneth cells were identified as lysozyme-high, CD24-mid, side scatter-high (SSC-high) (FIG. 27E). […] To evaluate whether the culture media supplements C and D may alter the effects of the 6 hits, Applicants also performed lysozyme assay in the canonical ENR culture condition in 3-D (because Paneth cells exist in an immature state within ENR, Applicants were unable to robustly quantify Paneth cell number via flow cytometry).\nFlow cytometry. ISC-enriched organoids in 3D Matrigel culture were passaged to a 48-well plate and induced differentiation for 6 days by ENR+CD media containing DMSO or each drug indicated in the figures. DMSO- or drug-containing media were changed every other day. On day 6, cells were washed twice with basal media, then harvested from Matrigel by the mechanical disruption in TrypLE Express (Thermo, #12605010) to remove Matrigel and dissociate organoids to single cells. After vigorous pipetting and incubation at 37° C. for 15 min, the cell solution was diluted twice with basal media and centrifuged at 300 ref for 3 min. The cell pellet was resuspended in FACS buffer (PBS containing 2% FBS) and replaced into a 96-well Clear Round Bottom Ultra-Low Attachment Microplate (Corning, #7007). The cell solution was centrifuged again at 300 rcf for 3 min at 4° C. to pellet the cells. Cells were stained with Zombie-violet dye (BioLegend, #423113) at 100× for viability staining for 20 min at RT in the dark. After centrifugation for 3 min at 300 rcf, cells were fixed in fixation buffer (FACS buffer containing 1% formaldehyde (Thermo, #28906)) for 15 min on ice in the dark. Cells were centrifuged again for 3 min at 300 rcf and blocked with staining buffer (FACS buffer containing 0.5% Tween20 (Sigma, P2287)) for 15 min at RT in the dark. Pelleted cells by the centrifugation for 3 min at 300 rcf are stained with FITC-conjugated anti-lysozyme antibody (Dako, F0372) and APC-conjugated anti-CD24 antibody (Biolegend, #138505) at 100× for 45 min at RT in the dark."}, "[3]": {"test_system": "ENR+CD organoids (ISC to Paneth cell differentiation)", "assay": "Secondary (validation) screen: LYZ.NS basal lysozyme secretion, 2.5-D 384-well ENR+CD organoids", "format": "cell-based, mouse", "settings": "for Dose.FC.LYZ.NS: 6-day ENR+CD, vs ENR+CD+DMSO"}, "[4]": {"settings": "2-day treatment within 6-day ENR+CD differentiation, read at day 6"}}}
{"molecule": "O=C(/C=C\\n1cnc(-c2cc(C(F)(F)F)cc(C(F)(F)F)c2)n1)NNc1cnccn1", "note": "[KPT-330]", "values": [{"measurement": "Paneth cell number, distal small intestine", "setting": "[1]; high dose", "result": "decreased Paneth cells"}, {"measurement": "cycling cell number, distal small intestine", "setting": "[1]; low dose", "result": "significant increase in cycling cell number"}, {"measurement": "Paneth cell number, proximal small intestine", "setting": "[1]; oral gavage, 1 week", "result": "no significant shift in Paneth cell number"}, {"measurement": "effect by histology", "setting": "[1]; oral gavage, 1 week", "result": "pro-differentiation effect"}, {"measurement": "goblet cell numbers, proximal/distal small intestine", "setting": "[1]; oral gavage, 1 week", "result": "no significant shift in goblet cell numbers"}, {"measurement": "enrichment in mature Paneth cells, treatment day 0-2", "setting": "[2]; [4]", "result": "greatest enrichment in mature Paneth cells"}, {"measurement": "enrichment in mature Paneth cells, treatment day 2-4", "setting": "[2]; [4]", "result": "moderate enrichment"}, {"measurement": "enrichment in mature Paneth cells, treatment day 4-6 (by flow cytometry)", "setting": "[2]; [4]", "result": "no different than untreated"}, {"measurement": "increase in mature Paneth cells at day 6 of differentiation", "setting": "[2]; ENR+CD + KPT-330 vs control", "result": 2, "unit": "fold"}, {"measurement": "mature Paneth cell population within organoids", "setting": "[2]; most potent dose from 2.5-D screening, ENR+CD 6 days, 3-D culture", "result": "significantly enhanced the mature Paneth cell population"}, {"measurement": "Dose.FC.LYZ.NS", "setting": "[3]; 0.02 uM", "result": "−0.005", "unit": "log2 fold change"}, {"measurement": "Dose.FC.LYZ.NS", "setting": "[3]; 0.04 uM", "result": "−0.040", "unit": "log2 fold change"}, {"measurement": "Dose.FC.LYZ.NS", "setting": "[3]; 0.08 uM", "result": 0.142, "unit": "log2 fold change"}, {"measurement": "validated doses in secondary screen (SSMD above cutoff in both LYZ assays)", "setting": "[3]; LYZ.NS and LYZ.S", "result": "multiple validated doses"}, {"measurement": "Dose.FC.LYZ.NS", "setting": "[3]; […]", "result": 0.244, "unit": "log2 fold change"}, {"measurement": "increase in basal LYZ secretion (LYZ.NS) relative to ENR+CD control", "setting": "[3]; validated dose-treatments, mean fold change vs ENR+CD+DMSO", "result": "50-75%"}]}
